Data published in PMC6804466 (Acta Pharmaceutica Sinica. B, 2019).
Marks after values point to notes of the source that are not given here.

Legend:
[1] = human; cited from earlier work
[2] = system: hOAT3-HEK293 cells; assay: Cytotoxicity of Imp, CCK-8 assay, hOAT3-HEK293 cells; type: cell-based, human; conditions: 24 h; for Survival rate of hOAT3-HEK293 cells with Imp in the presence of Cil or Prb: Imp 1 mmol/L plus the named inhibitor 200 μmol/L
[3] = Imp-induced nephrotoxicity in rabbits; type: in vivo, rabbit; conditions: for Imp-induced acute structural damage of rabbit kidney after coadministration: Imp 200 mg/kg i.v. plus Cil 200 mg/kg or Prb 50 mg/kg
[4] = cited from earlier work
[5] = system: Mock-HEK293 cells; assay: Cytotoxicity of Imp, CCK-8 assay, Mock-HEK293 cells; type: cell-based, human; conditions: 24 h; for Effect of Cil or Prb on the survival rate of Mock cells treated with Imp: Imp 0–1 mmol/L plus the named inhibitor 200 μmol/L
[6] = calculated from maximum plasma concentration and plasma protein binding
[7] = molecular target: T1, hOAT3 (Homo sapiens, UniProt Q8TCC7); conditions: 100 μmol/L, 10 min, with or without Prb 200 μmol/L
T1 sequence (Q8TCC7 1-542): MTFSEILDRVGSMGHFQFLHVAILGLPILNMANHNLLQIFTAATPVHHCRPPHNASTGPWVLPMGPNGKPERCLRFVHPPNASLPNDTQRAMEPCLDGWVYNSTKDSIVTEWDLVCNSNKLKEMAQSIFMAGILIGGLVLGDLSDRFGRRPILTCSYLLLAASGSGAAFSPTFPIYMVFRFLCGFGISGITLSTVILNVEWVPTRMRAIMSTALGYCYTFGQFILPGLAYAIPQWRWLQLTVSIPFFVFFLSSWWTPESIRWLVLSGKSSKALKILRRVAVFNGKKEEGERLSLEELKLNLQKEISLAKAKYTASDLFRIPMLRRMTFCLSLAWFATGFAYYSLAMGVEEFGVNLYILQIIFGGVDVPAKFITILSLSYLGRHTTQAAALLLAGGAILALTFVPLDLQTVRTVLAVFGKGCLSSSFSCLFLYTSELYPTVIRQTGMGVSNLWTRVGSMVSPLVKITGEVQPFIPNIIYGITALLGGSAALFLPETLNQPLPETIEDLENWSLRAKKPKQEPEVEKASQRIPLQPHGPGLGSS

[8] = molecular target: T2, hOAT1 (Homo sapiens, UniProt Q4U2R8); assay: Imp uptake by hOAT1-HEK293 cells; type: cell-based; conditions: 100 μmol/L, 10 min, with or without Prb 200 μmol/L
T2 sequence (Q4U2R8 1-563): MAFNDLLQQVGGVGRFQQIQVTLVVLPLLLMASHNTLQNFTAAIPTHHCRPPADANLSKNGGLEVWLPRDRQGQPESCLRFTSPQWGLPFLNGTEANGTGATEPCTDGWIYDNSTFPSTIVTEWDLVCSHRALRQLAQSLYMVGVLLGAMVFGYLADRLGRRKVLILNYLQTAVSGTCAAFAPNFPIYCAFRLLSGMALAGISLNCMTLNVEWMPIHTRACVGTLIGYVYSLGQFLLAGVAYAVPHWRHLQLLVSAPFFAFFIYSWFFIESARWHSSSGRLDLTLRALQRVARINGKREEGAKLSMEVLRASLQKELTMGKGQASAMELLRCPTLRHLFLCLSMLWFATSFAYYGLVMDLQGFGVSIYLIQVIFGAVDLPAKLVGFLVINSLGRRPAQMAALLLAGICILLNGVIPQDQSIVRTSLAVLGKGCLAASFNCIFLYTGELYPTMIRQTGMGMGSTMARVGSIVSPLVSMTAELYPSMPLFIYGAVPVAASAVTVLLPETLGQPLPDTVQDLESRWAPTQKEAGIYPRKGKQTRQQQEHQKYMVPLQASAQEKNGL

[9] = system: raOATs; assay: Imp uptake by rabbit primary proximal tubule cells; type: cell-based; conditions: Imp 100 μmol/L, 10 min, vs si-Control cells
[10] = system: hOAT1-HEK293 cells; assay: Cytotoxicity of Imp, CCK-8 assay, hOAT1-HEK293 cells; type: cell-based, human; conditions: Imp alone 1 mmol/L, 24 h
[11] = Pharmacokinetics of Imp in rabbits; type: in vivo; conditions: male, New Zealand white, rabbit, iv, 200 mg/kg
[12] = Imp 200 mg/kg i.v. with or without Cil 200 mg/kg or Prb 50 mg/kg, 48 h

For `CC1(C)C[C@@H]1C(=O)N/C(=C\CCCCSC[C@H](N)C(=O)O)C(=O)O` [Cil, cilastatin], the “Plasma protein binding of Cil” value [1] is given as “approximately 40%”, the “Survival rate of hOAT3-HEK293 cells with Imp in the presence of Cil or Prb” value [2] is given as 66.3% and the “Imp-induced acute structural damage of rabbit kidney after coadministration” value ([3]; 48 h) is given as “significantly reduced”. The “Maximum clinical plasma concentration of Cil” value ([4]; human) was 88 µg/mL, the “Effect of Cil or Prb on the survival rate of Mock cells treated with Imp” value [5] was “little effect” and the “Peak level of free Cil in human” value [6] was “about 140 μmol/L”.
With `C[C@@H](O)[C@H]1C(=O)N2C(C(=O)O)=C(SCCN=CN)C[C@H]12` [Imp, Imipenem] the “Survival rate of hOAT3-HEK293 cells” value ([2]; Imp alone 1 mmol/L) was 27.2%, the “Substrate of hOAT3 (uptake vs Mock cells, inhibited by Prb)” value [7] was “substrates of hOAT1 and hOAT3” and the “Renal histology (HE and PAS staining)” value ([3]; Imp 200 mg/kg i.v. alone, 48 h) was “severe renal damage”. The “Body weight 0 h” value ([3]; Imp 200 mg/kg i.v. with or without Cil 200 mg/kg or Prb 50 mg/kg, 0 h (baseline)) was 2.87 ± 0.24 kg, the “Body weight 48 h” value [3, 12] was 2.69 ± 0.24 kg and the Kidney weight [3, 12] was 13.2 ± 1.5 g. For the same compound, the Kidney/body weight ratio [3, 12] was 4.81 ± 0.29 ^a g/kg, the “Renal excretion of Imp” value [4] was roughly 70% and the “Substrate of hOAT1 (uptake vs Mock cells, inhibited by Prb)” value [8] was “substrates of hOAT1 and hOAT3”. For the same compound, the “Increase in intracellular level of Imp in rPTCs transfected with si-DHP-I” value [9] was 30%, the “Survival rate of hOAT1-HEK293 cells” value [10] was 47.5% and the AUC(0-t) ([11]; plasma) was 289 ± 48.7 µg·h/mL. The clearance ([11]; plasma) was 11.9 mL/min/kg, the half-life ([11]; plasma) was 58 ± 4.2 min and the CL renal ([11]; urine) was 2.78 mL/min/kg. For the same compound, the “Survival rate of Mock-HEK293 cells” value ([5]; Imp alone 1 mmol/L) was 85.8%.
For `CCCN(CCC)S(=O)(=O)c1ccc(C(=O)O)cc1` [Prb, probenecid], the “Survival rate of hOAT3-HEK293 cells with Imp in the presence of Cil or Prb” value [2] was 76.2%, the “Imp-induced acute structural damage of rabbit kidney after coadministration” value ([3]; 48 h) was “significantly reduced” and the “Effect of Cil or Prb on the survival rate of Mock cells treated with Imp” value [5] was “little effect”.
